Measurements published in patent US20230391729A1, “SUCCINATE SALTS OF N-(3-(4-(3-(DIISOBUTYLAMINO)PROPYL)PIPERAZIN-1-YL)PROPYL)-1H-BENZO[D]IMIDAZOL-2-AMINE, PREPARATION THEREOF AND USE OF THE SAME” (ALZPROTECT, priority 2020, published 2023).

Tested on: α-syn aggregation
Assay: α-synuclein aggregation in TH(+) neurons after rotenone injury
Assay type: cell-based, rat
Conditions: rotenone 10 nM 24 h
Protocol: Rat dopaminergic neurons were cultured as described by Visanji et al. in FASEB J. 2008, 22(7): 2488-2497 and Callizot et al., in Plos One 2019: https://doi.org/10.1371/journal.pone.0215277. Briefly, pregnant female rat (Wistar) of 15 days of gestation were killed using a deep anesthesia with CO2 chamber and a cervical dislocation. The midbrains obtained from 15-day-old rat embryos (Janvier, France) were dissected under a microscope. The embryonic midbrains were removed and placed in ice-cold medium of Leibovitz (L15) containing 2% of Penicillin-Streptomycin (PS) and 1% of BSA. The ventral portion of the mesencephalic flexure, a region of the developing brain rich in dopaminergic neurons, were used for the cell preparations. The midbrains were dissociated by trypsinization for 20 min at 37° C. (solution at a final concentration of 0.05% trypsin and 0.02% EDTA). The reaction was stopped by the addition of DMEM containing DNAase I grade II (0.5 mg/mL) and 10% of FCS. […] Viable cells were counted in a Neubauer cytometer using the trypan blue exclusion test. […]
The following read-outs were investigated: • neuron survival: total number of TH neurons (TH staining), • neurite network: total length of neurite network of TH positive neurons (in μm) • α-syn aggregation (area of overlapping between TH and α-syn staining in μm^2) […]

Substance: N-(3-(4-(3-(diisobutylamino)propyl)piperazin-1-yl)propyl)-1H-benzo[d]imidazol-2-amine sesqui-succinate salt [sesqui-succinate salt Form 1]
- α-syn aggregation (100 nM co-administered): prevented
- α-syn aggregation (pre-incubated or applied directly with rotenone, 10 to 100 nM): significantly reduced
